Results: patent US20240316017A1, “NOVEL PYRIDINE DERIVATIVE COMPOUND AS RON INHIBITOR” (LG CHEM, LTD., priority 2021, published 2024)

Key:
cMET = cMET (Homo sapiens, UniProt P08581); experiment: Evaluation of inhibitory activity against MET (TR-FRET kinase assay); assay type: biochemical; conditions: cMET protein, TK peptide substrate
Procedure: In addition, in order to measure the enzyme activity inhibition for cMET, the evaluation was performed in the same manner as the enzyme activity inhibition measurement experiment for RON.
(§1) Specifically, the compound was prepared to a concentration of 1 mM in 100% DMSO and was diluted 10 times in a stepwise manner through 3-fold dilution. The compound (2 ul) diluted in a stepwise manner was added to a 96-well-plate containing 48 ul of a 1× kinase reaction buffer (50 mM HEPES (pH 7.4), 0.05% BSA, 0.005% Tween-20, 1 mM DTT, 0.5 mM MnCl2, 20 mM MgCl2).
The cMET protein was diluted to a concentration of 263 nM in a cMET storage buffer (50 mM Tris-HCl (pH 7.5), 150 mM NaCl, 0.05% Brij35, 1 mM DTT, 10% Glycerol), and then diluted again to a concentration of 2 nM in a 1× kinase reaction buffer. As a substrate cocktail, a MET-specific substrate mixed solution (5 uM TK peptide, 10 mM ATP) was prepared at a concentration 2 times the final reaction concentration.
(§2) Thereafter, a 384-well-plate was prepared, and 2.5 μl of each of the diluted compounds of Examples was added to a corresponding well of experimental group wells, and 2.5 μl of a 4% DMSO solution was dispensed into high control wells and low control wells.
(§3) Thereafter, 2.5 μL of 2 nM cMET was dispensed into each of the high control wells and the experimental group wells, and 2.5 μL of the 1×kinase reaction buffer was added to the low control wells, and all the wells were centrifuged at room temperature for 40 seconds at 1,000 RPM, and then incubated at room temperature for 20-30 minutes. Then, 5 uL of the substrate cocktail (2×) was dispensed into each well, and all the wells were centrifuged at room temperature for 40 seconds at 1,000 RPM, and then incubated at room temperature for 60 minutes. Thereafter, 5 uL of 90 mM EDTA was added to each well to terminate the reaction, and all the wells were then incubated again at room temperature for 5 minutes. Thereafter, 5 uL of a 4× phosphotyrosine antibody (Perkin Elmer) containing europium was added to each well, and all the wells were then incubated at room temperature for 60 minutes. After the incubation, the 384-well-plate was read with the Vison plate reader. In this case, the excitation wavelength was 340 nm, and the emission wavelength was 620 nm and 665 nm. The IC50 value of each compound of Examples was derived using the GraphPd Prism7 program.

RON = RON (Homo sapiens, UniProt Q04912); experiment: Evaluation of inhibitory activity against RON (TR-FRET kinase assay); assay type: biochemical; conditions: RON protein, ULight-labeled Poly GT substrate
Procedure: In order to measure the inhibitory activity of each of the compounds of Examples against RON, the IC50 of each of the compounds was measured using Time-resolved fluorescence energy transfer (TR-FRET).
as §1, with “7.4), 0.01%” for “7.4), 0.05% BSA, 0.005%”, “Tween-20, 5” for “Tween-20, 1”, “mM Na3VO4, 2 mM EGTA, 10” for “mM MnCl2, 20”
The RON protein was diluted to a concentration of 49.3 nM in a RON storage buffer (50 mM Tris-HCl (pH 7.5), 150 mM NaCl, 0.5 mM EDTA, 0.02% Triton X-100), and then diluted again to a concentration of 0.4 nM in a 1×kinase reaction buffer. As a substrate cocktail, a RON-specific substrate mixed solution (40 uM ULight-labeled Poly GT, 100 nM ATP) was prepared at a concentration 2 times the final reaction concentration.
as §2
as §3, with “of 0.4” for “of 2”, “nM RON” for “nM cMET”, “the 1× kinase” for “the 1×kinase”, “of 30” for “of 90”

Sequence of RON (Q04912 25-1400, species assumed): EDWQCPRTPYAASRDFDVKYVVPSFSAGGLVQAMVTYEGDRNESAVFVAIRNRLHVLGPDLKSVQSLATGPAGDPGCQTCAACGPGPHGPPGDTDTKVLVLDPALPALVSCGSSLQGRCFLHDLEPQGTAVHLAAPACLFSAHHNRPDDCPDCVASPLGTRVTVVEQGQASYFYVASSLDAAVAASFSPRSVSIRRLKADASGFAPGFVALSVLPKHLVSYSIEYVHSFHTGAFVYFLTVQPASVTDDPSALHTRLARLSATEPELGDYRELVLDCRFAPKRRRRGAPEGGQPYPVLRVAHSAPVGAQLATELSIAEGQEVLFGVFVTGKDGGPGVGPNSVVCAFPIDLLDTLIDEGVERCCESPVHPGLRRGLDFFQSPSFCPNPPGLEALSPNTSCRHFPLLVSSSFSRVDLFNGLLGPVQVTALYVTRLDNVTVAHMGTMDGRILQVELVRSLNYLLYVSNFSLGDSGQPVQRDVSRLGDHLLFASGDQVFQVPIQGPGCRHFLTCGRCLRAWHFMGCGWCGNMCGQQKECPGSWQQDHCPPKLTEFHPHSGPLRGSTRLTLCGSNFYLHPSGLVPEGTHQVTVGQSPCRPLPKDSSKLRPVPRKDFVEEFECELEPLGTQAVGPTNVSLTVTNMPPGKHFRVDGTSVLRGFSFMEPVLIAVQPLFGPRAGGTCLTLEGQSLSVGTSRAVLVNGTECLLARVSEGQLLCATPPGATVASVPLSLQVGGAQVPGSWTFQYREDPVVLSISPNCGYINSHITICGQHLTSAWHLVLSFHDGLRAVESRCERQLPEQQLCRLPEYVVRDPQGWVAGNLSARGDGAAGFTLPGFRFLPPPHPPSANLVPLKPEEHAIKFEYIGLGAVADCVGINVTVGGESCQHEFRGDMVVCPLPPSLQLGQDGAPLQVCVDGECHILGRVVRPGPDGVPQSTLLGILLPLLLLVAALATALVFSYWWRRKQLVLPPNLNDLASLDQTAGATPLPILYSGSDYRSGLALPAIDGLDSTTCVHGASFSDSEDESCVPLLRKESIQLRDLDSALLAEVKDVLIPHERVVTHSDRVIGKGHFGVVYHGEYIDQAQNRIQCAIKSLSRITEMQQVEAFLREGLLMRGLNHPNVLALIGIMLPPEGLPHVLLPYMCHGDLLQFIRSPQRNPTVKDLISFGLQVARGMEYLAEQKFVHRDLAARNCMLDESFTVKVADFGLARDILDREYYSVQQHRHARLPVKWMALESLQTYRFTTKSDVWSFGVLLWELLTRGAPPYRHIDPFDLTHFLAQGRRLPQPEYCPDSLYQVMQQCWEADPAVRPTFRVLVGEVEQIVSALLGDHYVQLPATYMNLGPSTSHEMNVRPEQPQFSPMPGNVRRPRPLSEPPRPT
Sequence of cMET (P08581 25-1390): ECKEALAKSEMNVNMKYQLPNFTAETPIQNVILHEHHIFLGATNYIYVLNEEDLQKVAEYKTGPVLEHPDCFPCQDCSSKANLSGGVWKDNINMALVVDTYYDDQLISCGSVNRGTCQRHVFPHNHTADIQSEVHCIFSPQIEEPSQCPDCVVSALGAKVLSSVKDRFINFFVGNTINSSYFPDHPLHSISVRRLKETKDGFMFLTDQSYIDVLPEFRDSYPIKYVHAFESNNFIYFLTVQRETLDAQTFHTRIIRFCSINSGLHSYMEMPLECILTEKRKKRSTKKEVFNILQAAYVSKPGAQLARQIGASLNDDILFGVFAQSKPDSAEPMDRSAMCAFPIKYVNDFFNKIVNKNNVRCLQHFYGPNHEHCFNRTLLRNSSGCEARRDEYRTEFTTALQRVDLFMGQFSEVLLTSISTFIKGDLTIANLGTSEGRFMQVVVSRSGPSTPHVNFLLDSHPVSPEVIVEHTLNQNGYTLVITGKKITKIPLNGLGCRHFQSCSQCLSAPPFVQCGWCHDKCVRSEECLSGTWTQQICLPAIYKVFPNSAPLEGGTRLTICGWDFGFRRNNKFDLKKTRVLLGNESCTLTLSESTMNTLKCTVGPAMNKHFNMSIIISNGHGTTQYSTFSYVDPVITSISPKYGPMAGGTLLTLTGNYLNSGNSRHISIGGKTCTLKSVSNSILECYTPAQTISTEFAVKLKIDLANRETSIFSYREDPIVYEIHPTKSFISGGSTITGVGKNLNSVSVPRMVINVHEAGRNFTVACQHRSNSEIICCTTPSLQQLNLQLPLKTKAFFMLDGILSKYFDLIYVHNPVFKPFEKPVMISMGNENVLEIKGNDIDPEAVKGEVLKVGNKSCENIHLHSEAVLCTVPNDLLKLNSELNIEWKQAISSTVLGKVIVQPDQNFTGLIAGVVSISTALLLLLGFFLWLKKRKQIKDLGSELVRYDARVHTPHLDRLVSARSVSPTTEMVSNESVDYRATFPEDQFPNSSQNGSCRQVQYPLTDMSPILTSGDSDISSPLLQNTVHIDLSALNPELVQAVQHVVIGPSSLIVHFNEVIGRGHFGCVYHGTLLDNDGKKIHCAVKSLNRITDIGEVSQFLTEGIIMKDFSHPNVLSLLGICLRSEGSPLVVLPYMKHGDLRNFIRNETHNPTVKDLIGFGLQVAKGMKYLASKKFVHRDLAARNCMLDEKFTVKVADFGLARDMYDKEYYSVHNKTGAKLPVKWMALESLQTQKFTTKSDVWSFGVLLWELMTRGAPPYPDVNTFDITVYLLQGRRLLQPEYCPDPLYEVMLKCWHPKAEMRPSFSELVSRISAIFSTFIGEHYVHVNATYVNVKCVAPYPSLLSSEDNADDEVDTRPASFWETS

IC50 (cMET)	IC50 (RON)	SMILES
500 to 5000 nM	50 to 500 nM	CCc1c(C(=O)Nc2ccc(Oc3ccnc(N)c3Cl)c(F)c2)cnn1-c1ccccc1 [Example 5, N-(4-((2-amino-3-chloropyridin-4-yl)oxy)-3-fluorophenyl)-5-ethyl-1-phenyl-1H-pyrazole-4-carboxamide]
500 to 5000 nM	< 50 nM	Nc1nccc(Oc2ccc(NC(=O)c3ncn(-c4ccccc4)c3C(F)(F)F)cc2F)c1Cl [Example 1, N-(4-((2-amino-3-chloropyridin-4-yl)oxy)-3-fluorophenyl)-1-phenyl-5-(trifluoromethyl)-1H-imidazole-4-carboxamide]
> 5000 nM	50 to 500 nM	O=C(Nc1ccc(Oc2ccnc(NC(=O)C3CC3)c2)c(F)c1)c1ncn(-c2ccccc2)c1C(F)(F)F [Example 26, N-(4-((2-cyclopropanecarboxamido)pyridin-4-yl)oxy-3-fluorophenyl)-1-phenyl-5-(trifluoromethyl)-1H-imidazole-4-carboxamide]
> 5000 nM	500 to 5000 nM	Cc1nc(-c2ccccc2)sc1C(=O)Nc1ccc(Oc2ncnc(N)c2Cl)c(F)c1 [Example 61, N-[4-(6-amino-5-chloro-pyrimidin-4-yl)oxy-3-fluorophenyl]-4-methyl-2-phenyl-thiazole-5-carboxamide]
> 5000 nM	50 to 500 nM	Nc1nccc(Oc2ccc(NC(=O)c3onc(-c4ccccc4)c3C(F)(F)F)cc2F)c1Cl [Example 38, N-(4-((2-amino-3-chloropyridin-4-yl)oxy)-3-fluorophenyl)-3-phenyl-4-(trifluoromethyl)isoxazole-5-carboxamide]
> 5000 nM	50 to 500 nM	Nc1nccc(Oc2ccc(NC(=O)c3ccc(-c4ccccc4)s3)cc2F)c1Cl [Example 33, N-(4-((2-amino-3-chloropyridin-4-yl)oxy)-3-fluorophenyl)-5-phenylthiophene-2-carboxamide]
> 5000 nM	> 5000 nM	Nc1ncnc(Oc2ccc(NC(=O)c3cnn(-c4ccccc4)c3)cc2F)c1Cl [Example 57, N-(4-((6-amino-5-chloro-pyrimidin-4-yl)oxy)-3-fluorophenyl)-1-phenyl-1H-pyrazole-4-carboxamide]
> 5000 nM	500 to 5000 nM	Nc1nccc(Oc2ccc(NC(=O)c3cnn(-c4ccccc4)c3N)cc2F)c1Cl [Example 10, 5-amino-N-(4-((2-amino-3-chloropyridin-4-yl)oxy)-3-fluorophenyl)-1-phenyl-1H-pyrazole-4-carboxamide]
> 5000 nM	50 to 500 nM	Nc1ncnc(Oc2ccc(NC(=O)c3cnn(-c4ccccc4)c3C(F)(F)F)cc2F)c1Cl [Example 46, N-(4-((6-amino-5-chloro-pyrimidin-4-yl)oxy)-3-fluorophenyl)-1-phenyl-5-(trifluoromethyl)-1H-pyrazole-4-carboxamide]
> 5000 nM	50 to 500 nM	Cc1c(C(=O)Nc2ccc(Oc3ncnc(N)c3Cl)c(F)c2)nnn1-c1ccccc1F [Example 56, N-[4-(6-amino-5-chloro-pyrimidin-4-yl)oxy-3-fluorophenyl]-1-(2-fluorophenyl)-5-methyl-triazole-4-carboxamide]
> 5000 nM	50 to 500 nM	Nc1nccc(Oc2ccc(NC(=O)c3cnn(-c4ccccc4)c3C(F)F)cc2F)c1Cl [Example 6, N-(4-((2-amino-3-chloropyridin-4-yl)oxy)-3-fluorophenyl)-5-(difluoromethyl)-1-phenyl-1H-pyrazole-4-carboxamide]
> 5000 nM	> 5000 nM	Cc1c(C(=O)Nc2ccc(Oc3ncnc(N)c3Cl)c(F)c2)nnn1-c1ccccc1 [Example 55, N-[4-(6-amino-5-chloro-pyrimidin-4-yl)oxy-3-fluorophenyl]-5-methyl-1-phenyl-triazole-4-carboxamide]
> 5000 nM	> 5000 nM	Cc1ccc(-n2ncc(C(=O)Nc3ccc(Oc4ncnc(N)c4Cl)c(F)c3)c2C(F)(F)F)cc1 [Example 49]
> 5000 nM	500 to 5000 nM	Nc1nccc(Oc2ccc(NC(=O)c3ncc(-c4ccccc4)s3)cc2F)c1Cl [Example 32, N-(4-((2-amino-3-chloropyridin-4-yl)oxy)-3-fluorophenyl)-5-phenylthiazole-2-carboxamide]
> 5000 nM	500 to 5000 nM	CC(C)(C)n1ncc(C(=O)Nc2ccc(Oc3ncnc(N)c3Cl)c(F)c2)c1C(F)(F)F [Example 58, N-[4-(6-amino-5-chloro-pyrimidin-4-yl)oxy-3-fluorophenyl]-1-tert-butyl-5-(trifluoromethyl)pyrazole-4-carboxamide]
500 to 5000 nM	< 50 nM	Nc1nccc(Oc2ccc(NC(=O)c3ncn(-c4ccccc4)c3C(F)(F)F)cc2F)c1I [Example 29, N-(4-((2-amino-3-iodopyridin-4-yl)oxy)-3-fluorophenyl)-1-phenyl-5-(trifluoromethyl)-1H-imidazole-4-carboxamide]
> 5000 nM	50 to 500 nM	Nc1ncnc(Oc2ccc(NC(=O)c3cnn(C4CCCCC4)c3C(F)(F)F)cc2F)c1Cl [Example 51]
> 5000 nM	500 to 5000 nM	Nc1ncnc(Oc2ccc(NC(=O)c3cnn(C4CCCOC4)c3C(F)(F)F)cc2F)c1Cl (stereo not drawn) [Example 50]
500 to 5000 nM	< 50 nM	Nc1nccc(Oc2ccc(NC(=O)c3cnn(-c4ccccc4)c3C(F)(F)F)cc2F)c1Cl [Example 2, N-(4-((2-amino-3-chloropyridin-4-yl)oxy)-3-fluorophenyl)-1-phenyl-5-(trifluoromethyl)-1H-pyrazole-4-carboxamide]
500 to 5000 nM	50 to 500 nM	Nc1nccc(Oc2ccc(NC(=O)c3cnn(-c4ccccc4)c3Cl)cc2F)c1Cl [Example 18, N-(4-((2-amino-3-chloropyridin-4-yl)oxy)-3-fluorophenyl)-5-chloro-1-phenyl-1H-pyrazole-4-carboxamide]
> 5000 nM	50 to 500 nM	Nc1nccc(Oc2ccc(NC(=O)c3cnc(-c4ccccc4)s3)cc2F)c1Cl [Example 30, N-(4-((2-amino-3-chloropyridin-4-yl)oxy)-3-fluorophenyl)-2-phenylthiazole-5-carboxamide]
> 5000 nM	> 5000 nM	O=C(Nc1ccc(Oc2ncnc(NC3CC3)c2Cl)c(F)c1)c1cnn(-c2ccccc2)c1C(F)(F)F [Example 62, N-(4-((5-chloro-6-(cyclopropylamino)pyrimidin-4-yl)oxy)-3-fluorophenyl)-1-phenyl-5-(trifluoromethyl)-1H-pyrazole-4-carboxamide]
> 5000 nM	50 to 500 nM	C=CC(=O)Nc1nccc(Oc2ccc(NC(=O)c3ncn(-c4ccccc4)c3C(F)(F)F)cc2F)c1Cl [Example 21]
> 5000 nM	50 to 500 nM	COc1ccccc1-n1ncc(C(=O)Nc2ccc(Oc3ccnc(N)c3Cl)c(F)c2)c1C(F)(F)F [Example 16, N-(4-((2-amino-3-chloropyridin-4-yl)oxy)-3-fluorophenyl)-1-(2-methoxyphenyl)-5-(trifluoromethyl)-1H-pyrazole-4-carboxamide]
